The record followed here is patent US10363276B2, “Compositions, methods, and devices for treating disease” (The General Hospital Corporation, priority 2006, dated 2019).

One data set has as its system Hepatocytes. Description: Hepatocyte colonies and urea synthesis with modulation of SDF-1a signaling. In kind it is cell-based. The note with it: 5 ng/ml SDF-1a or AMD3100 at 1 uM in standard culture medium. On the procedure:
FIG. 24 is a bar graph of Urea synthesis in hepatocytes cultured on growth-arrested NIH-3T3-J2 fibroblasts for 14 days supplemented with 5 ng/ml SDF-1a or AMD3100, a CXCR4 antagonist. Data represent mean±standard error of the mean (s.e.m.) of two independent experiments performed in triplicate.
One component of MSC-CM that may be responsible for increased hepatocyte replication is SDF-1a. Hepatocytes were proliferated using aforementioned techniques in standard culture medium alone or supplemented with 5 ng/ml SDF-1a (FIG. 29B) or the SDF-1a receptor antagonist, AMD3100 at 1 uM.

A further data set relates to human MSCs. As to the kind of experiment: IL-10 mRNA (RT-PCR) and protein (ELISA) in cytokine-treated MSCs. In kind it is cell-based. The note with it: IL-6 2.5 ng/ml or TNF-α 25 ng/ml, 24 hours. On the procedure:
MSCs were exposed to IL-1, IL-6, or tumor necrosis factor-α(TNF-α), all of which are cytokines known to be involved in liver fibrosis, for 24 hours. IL-10 protein secretion and mRNA levels were the determined by enzyme-linked-immunosorbent-assay (ELISA) and RT-PCR, respectively.
Briefly, human MSCs were treated with 2.5 ng/ml IL-6 (R&D Systems, Minneapolis, Minn.), 5 ng/ml IL-1 (R&D Systems, Minneapolis, Minn.), or 25 ng/ml TNF-α (R&D Systems, Minneapolis, Minn.) supplemented MSC expansion medium for 24 hours. MSCs cultured in expansion medium served as a negative control. After treatment, cells were harvested and analyzed for changes in gene expression.
Quantification of human IL-10 was determined using an ELISA as per vendor instructions (Endogen, Rockford, Ill.). Supernatants were sampled after 48 hours of co-culture and stored at −20° C. until analysis.
RNA was extracted from 0.1-1.0×10^6 MSCs using the NUCLEOSPIN RNA purification kit (BD Biosciences, Palo Alto, Calif.) per the manufacturer's instructions. Approximately 1 μg of total mRNA was reverse transcribed to cDNA using the ONESTEP RT-PCR Kit (Qiagen, Valencia, Calif.) per manufacturer's instructions and amplified in a Perkin Elmer-Cetus Thermal Cycler 480. Cycling conditions were: 1) 50° C. for 30 minutes; 2) 95° C. for 15 minutes; 3) 30 cycles at 94° C. for 30 seconds, 55° C. for 30 seconds, and 72° C. for 1 minute; and 4) a final extension step at 72° C. for 10 minutes. IL-10 was amplified using a combination of the sense and antisense oligonucleotides SEQ ID NO:1 and SEQ ID NO:2, respectively, to yield a 364 base pair (bp) PCR product. Glyceraldehyde 3-phosphate dehydrogenase (GAPDH) was amplified using a combination of the sense and antisense oligonucleotides SEQ ID NO:3 and SEQ ID NO:4, respectively, to yield a 238 bp PCR product.
On the technique in general: An ELISA detects its analyte on a solid surface through an enzyme-linked reagent.

On to `c1cc(CN2CCCNCCNCCCNCC2)ccc1CN1CCCNCCNCCCNCC1` [AMD3100], for which the hepatocyte colony size result with Hepatocytes is reported as “smaller colonies”.

Regarding “IL-6: cytokine (R&D Systems) used at 2.5 ng/ml to treat human MSCs”, in the data set on human MSCs, the “IL-10 mRNA in MSCs” value is listed as “upregulation” and the “IL-10 protein secretion into the culture medium by MSCs” value is on record as “upregulation”.

Consider TNF-α, for which, in the data set on human MSCs, the “IL-10 mRNA in MSCs” value is on record as “upregulation” and the “IL-10 protein secretion into the culture medium by MSCs” value is listed as “upregulation”.
